{"source": "patent US20260184713A1", "about": "“KINASE INHIBITORS” (The United States of America, as represented by the …, priority 2022, published 2026)", "assay_in_all_cases": "HOTSPOT radiometric kinase assay", "key": {"WNK1": {"target": "T1, WNK1 (Homo sapiens, UniProt Q9H4A3)", "T1 construct": "purchased Reaction Biology Corp", "format": "biochemical", "conditions": "10 μM ATP"}, "BMX": {"target": "T2, BMX (Homo sapiens, UniProt P51813)", "T2 construct": "purchased Reaction Biology Corp", "format": "biochemical", "conditions": "10 μM ATP"}, "FLT1/VEGFR1": {"target": "FLT1/VEGFR1 (Homo sapiens, UniProt P17948)"}, "RSK2": {"target": "T3, RSK2 (Homo sapiens, UniProt P51812)", "T3 construct": "purchased Reaction Biology Corp", "format": "biochemical", "conditions": "10 μM ATP"}, "ROCK2": {"target": "T4, ROCK2 (Homo sapiens, UniProt O75116)", "T4 construct": "purchased Reaction Biology Corp", "format": "biochemical", "conditions": "10 μM ATP"}, "EPHB3": {"target": "T5, EPHB3 (Homo sapiens, UniProt P54753)", "T5 construct": "purchased Reaction Biology Corp", "T5 sequence (P54753 34-998)": "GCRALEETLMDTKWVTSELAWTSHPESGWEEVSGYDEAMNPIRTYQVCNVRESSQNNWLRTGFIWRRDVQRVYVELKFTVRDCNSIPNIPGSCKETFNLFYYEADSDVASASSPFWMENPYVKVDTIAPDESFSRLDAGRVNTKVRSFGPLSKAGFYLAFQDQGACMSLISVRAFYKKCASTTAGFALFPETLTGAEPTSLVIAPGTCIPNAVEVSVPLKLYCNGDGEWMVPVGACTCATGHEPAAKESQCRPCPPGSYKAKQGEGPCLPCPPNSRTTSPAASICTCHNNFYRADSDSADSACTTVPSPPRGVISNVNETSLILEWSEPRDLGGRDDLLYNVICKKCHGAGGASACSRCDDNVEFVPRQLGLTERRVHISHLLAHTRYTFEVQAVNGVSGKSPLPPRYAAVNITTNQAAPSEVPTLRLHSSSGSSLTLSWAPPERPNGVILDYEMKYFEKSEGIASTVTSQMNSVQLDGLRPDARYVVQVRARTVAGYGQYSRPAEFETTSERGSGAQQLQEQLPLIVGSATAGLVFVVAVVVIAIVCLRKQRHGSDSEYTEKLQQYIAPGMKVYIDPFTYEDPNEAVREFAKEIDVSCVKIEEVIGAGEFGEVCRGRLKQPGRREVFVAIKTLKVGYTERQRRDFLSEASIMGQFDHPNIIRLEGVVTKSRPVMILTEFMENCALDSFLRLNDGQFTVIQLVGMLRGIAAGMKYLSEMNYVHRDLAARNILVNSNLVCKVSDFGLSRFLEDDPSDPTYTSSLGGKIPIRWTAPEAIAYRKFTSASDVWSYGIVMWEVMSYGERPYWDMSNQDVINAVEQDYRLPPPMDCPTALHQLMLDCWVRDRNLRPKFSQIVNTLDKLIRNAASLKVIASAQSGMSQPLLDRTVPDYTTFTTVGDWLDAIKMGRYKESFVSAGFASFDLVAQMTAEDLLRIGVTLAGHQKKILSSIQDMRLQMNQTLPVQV", "format": "biochemical", "conditions": "10 μM ATP"}, "CDK9": {"target": "T6, CDK9 (Homo sapiens, UniProt P50750)", "T6 construct": "purchased Reaction Biology Corp", "format": "biochemical", "conditions": "50 nM, 10 μM ATP"}, "ERBB2/HER2": {"target": "ERBB2/HER2 (Homo sapiens, UniProt P04626)", "sequence (P04626 23-1255)": "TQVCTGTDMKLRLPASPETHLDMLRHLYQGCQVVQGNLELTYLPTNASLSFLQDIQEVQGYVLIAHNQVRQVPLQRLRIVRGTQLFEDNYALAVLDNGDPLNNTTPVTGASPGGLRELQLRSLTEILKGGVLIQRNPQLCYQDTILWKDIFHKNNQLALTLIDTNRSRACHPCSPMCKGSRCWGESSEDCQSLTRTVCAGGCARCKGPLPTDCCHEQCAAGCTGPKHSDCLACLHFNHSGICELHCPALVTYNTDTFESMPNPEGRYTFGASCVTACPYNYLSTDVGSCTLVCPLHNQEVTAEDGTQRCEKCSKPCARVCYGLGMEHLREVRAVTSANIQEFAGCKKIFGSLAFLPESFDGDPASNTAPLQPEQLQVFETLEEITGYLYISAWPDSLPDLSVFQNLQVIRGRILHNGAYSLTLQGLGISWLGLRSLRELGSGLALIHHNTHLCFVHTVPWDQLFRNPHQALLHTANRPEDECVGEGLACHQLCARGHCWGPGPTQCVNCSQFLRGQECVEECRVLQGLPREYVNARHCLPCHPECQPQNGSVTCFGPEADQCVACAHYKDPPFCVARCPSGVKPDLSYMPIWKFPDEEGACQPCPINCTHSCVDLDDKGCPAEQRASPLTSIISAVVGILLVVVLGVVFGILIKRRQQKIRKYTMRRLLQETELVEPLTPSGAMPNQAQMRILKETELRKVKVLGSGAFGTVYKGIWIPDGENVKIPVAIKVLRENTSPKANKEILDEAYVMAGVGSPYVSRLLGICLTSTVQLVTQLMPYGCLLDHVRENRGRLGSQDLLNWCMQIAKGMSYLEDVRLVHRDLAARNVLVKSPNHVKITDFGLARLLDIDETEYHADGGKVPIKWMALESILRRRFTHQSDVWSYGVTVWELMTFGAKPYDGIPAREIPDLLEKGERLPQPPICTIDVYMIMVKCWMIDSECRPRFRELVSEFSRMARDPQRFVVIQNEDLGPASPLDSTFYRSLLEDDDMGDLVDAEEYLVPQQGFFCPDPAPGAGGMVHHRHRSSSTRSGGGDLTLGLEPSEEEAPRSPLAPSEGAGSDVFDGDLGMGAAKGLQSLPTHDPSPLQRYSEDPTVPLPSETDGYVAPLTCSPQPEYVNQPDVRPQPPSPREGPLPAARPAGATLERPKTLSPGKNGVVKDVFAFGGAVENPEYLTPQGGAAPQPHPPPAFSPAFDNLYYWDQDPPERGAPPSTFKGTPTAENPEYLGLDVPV"}, "PKCv/PKD3": {"target": "T7, PKCv/PKD3 (Homo sapiens, UniProt O94806)", "T7 construct": "purchased Reaction Biology Corp", "T7 sequence (O94806 1-890)": "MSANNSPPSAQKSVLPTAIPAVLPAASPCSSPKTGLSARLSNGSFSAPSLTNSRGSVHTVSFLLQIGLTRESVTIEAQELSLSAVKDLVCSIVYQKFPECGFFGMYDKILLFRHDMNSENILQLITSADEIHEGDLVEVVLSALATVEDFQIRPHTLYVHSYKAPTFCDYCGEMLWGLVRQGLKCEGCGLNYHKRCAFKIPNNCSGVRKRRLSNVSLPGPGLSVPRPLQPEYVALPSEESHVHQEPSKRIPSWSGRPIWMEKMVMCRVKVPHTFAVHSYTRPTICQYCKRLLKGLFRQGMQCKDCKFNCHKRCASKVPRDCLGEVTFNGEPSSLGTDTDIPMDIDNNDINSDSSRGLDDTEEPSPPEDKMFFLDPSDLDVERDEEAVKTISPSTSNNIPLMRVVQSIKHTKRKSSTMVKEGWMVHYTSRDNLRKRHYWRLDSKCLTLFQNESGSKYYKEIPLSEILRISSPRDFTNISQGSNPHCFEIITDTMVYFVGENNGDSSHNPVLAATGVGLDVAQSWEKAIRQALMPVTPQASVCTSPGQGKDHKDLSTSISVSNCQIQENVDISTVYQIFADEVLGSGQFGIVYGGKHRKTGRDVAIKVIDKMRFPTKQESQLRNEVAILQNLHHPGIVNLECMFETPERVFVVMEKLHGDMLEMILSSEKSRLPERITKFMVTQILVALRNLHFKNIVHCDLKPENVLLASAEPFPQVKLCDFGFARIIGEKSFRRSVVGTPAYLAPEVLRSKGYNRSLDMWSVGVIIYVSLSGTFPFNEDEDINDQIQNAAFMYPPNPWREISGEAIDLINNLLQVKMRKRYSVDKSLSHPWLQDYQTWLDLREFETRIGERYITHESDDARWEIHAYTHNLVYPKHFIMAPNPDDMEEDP", "format": "biochemical"}, "CLK1": {"target": "T8, CLK1 (Homo sapiens, UniProt P49759)", "T8 construct": "purchased Reaction Biology Corp", "format": "biochemical", "conditions": "2 μM, 10 μM ATP"}, "DYRK1A": {"target": "T9, DYRK1A (Homo sapiens, UniProt Q13627)", "T9 construct": "purchased Reaction Biology Corp", "format": "biochemical"}, "ERK1": {"target": "ERK1 (Homo sapiens, UniProt P27361)", "sequence (P27361 whole entry)": "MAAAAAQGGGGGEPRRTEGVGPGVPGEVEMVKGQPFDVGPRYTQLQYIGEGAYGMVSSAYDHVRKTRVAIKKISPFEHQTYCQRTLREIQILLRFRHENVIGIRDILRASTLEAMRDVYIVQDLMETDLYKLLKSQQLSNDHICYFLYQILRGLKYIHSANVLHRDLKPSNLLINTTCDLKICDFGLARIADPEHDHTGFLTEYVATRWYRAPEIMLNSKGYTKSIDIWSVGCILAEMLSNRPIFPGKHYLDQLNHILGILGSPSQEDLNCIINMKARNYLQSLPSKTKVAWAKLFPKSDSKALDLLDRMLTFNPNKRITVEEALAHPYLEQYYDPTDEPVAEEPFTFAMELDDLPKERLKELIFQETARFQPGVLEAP"}, "AKT1": {"target": "AKT1 (Homo sapiens, UniProt P31749)", "sequence (P31749 whole entry)": "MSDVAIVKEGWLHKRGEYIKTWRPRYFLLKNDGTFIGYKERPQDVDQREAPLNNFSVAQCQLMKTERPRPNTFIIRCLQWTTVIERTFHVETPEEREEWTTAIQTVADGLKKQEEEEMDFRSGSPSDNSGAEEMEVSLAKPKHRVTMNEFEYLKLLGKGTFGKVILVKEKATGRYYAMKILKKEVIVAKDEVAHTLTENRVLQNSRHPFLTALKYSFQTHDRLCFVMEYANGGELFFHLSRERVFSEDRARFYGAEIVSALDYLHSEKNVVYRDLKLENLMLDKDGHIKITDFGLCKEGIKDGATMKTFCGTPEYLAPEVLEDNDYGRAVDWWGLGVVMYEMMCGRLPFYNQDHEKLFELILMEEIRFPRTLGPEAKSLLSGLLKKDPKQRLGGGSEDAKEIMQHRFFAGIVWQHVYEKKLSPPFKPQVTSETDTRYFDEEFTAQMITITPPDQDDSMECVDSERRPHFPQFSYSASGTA"}, "CDK2": {"target": "T10, CDK2 (Homo sapiens, UniProt P24941)", "T10 construct": "purchased Reaction Biology Corp", "format": "biochemical", "conditions": "10 μM ATP"}, "PKCγ": {"target": "T11, PKCγ (Homo sapiens, UniProt P05129)", "T11 construct": "purchased Reaction Biology Corp", "format": "biochemical"}, "RAF1": {"target": "T12, RAF1 (Homo sapiens, UniProt P04049, Y340D/Y341D)", "T12 construct": "purchased Reaction Biology Corp", "T12 sequence (P04049 306-648 Y340D/Y341D limits assumed)": "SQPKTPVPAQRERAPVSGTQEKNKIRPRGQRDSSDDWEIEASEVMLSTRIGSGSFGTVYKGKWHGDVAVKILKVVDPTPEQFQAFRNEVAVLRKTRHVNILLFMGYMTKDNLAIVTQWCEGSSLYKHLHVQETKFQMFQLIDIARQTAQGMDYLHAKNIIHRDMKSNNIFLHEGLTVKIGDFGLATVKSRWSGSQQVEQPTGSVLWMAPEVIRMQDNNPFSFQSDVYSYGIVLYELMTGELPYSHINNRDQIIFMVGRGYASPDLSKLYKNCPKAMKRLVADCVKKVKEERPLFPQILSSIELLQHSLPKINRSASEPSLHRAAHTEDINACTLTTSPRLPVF", "format": "biochemical", "conditions": "10 μM ATP"}, "BMPR2": {"target": "T13, BMPR2 (Homo sapiens, UniProt Q13873)", "T13 construct": "purchased Reaction Biology Corp", "T13 sequence (Q13873 27-1038)": "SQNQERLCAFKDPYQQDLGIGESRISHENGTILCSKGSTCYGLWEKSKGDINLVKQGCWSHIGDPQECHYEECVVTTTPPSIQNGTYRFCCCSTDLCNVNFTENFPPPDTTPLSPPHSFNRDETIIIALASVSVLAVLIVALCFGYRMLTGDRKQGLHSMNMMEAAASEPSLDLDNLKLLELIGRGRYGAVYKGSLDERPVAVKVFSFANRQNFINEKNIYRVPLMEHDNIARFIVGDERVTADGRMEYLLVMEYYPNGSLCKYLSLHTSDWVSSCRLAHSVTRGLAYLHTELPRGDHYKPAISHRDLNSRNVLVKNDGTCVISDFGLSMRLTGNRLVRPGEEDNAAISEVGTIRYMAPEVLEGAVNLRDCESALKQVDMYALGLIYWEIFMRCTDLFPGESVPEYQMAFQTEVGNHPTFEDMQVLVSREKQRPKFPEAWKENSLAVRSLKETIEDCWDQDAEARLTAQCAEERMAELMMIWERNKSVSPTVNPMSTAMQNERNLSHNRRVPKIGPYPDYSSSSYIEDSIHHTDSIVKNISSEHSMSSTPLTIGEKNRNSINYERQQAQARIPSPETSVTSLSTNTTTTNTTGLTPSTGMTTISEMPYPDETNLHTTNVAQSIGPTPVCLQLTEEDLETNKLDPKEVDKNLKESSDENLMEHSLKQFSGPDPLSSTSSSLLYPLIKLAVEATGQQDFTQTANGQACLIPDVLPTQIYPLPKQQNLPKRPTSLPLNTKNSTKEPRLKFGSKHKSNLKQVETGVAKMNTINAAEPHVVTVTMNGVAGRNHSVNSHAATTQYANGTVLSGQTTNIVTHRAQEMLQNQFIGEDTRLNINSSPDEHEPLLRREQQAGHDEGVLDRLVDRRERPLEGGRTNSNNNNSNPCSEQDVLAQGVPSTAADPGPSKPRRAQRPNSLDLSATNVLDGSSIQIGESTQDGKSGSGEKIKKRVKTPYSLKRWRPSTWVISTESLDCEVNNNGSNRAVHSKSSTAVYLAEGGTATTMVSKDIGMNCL", "format": "biochemical", "conditions": "10 μM ATP"}, "MST3": {"target": "T14, MST3 (Homo sapiens, UniProt Q9Y6E0)", "T14 construct": "purchased Reaction Biology Corp", "T14 sequence (Q9Y6E0 whole entry)": "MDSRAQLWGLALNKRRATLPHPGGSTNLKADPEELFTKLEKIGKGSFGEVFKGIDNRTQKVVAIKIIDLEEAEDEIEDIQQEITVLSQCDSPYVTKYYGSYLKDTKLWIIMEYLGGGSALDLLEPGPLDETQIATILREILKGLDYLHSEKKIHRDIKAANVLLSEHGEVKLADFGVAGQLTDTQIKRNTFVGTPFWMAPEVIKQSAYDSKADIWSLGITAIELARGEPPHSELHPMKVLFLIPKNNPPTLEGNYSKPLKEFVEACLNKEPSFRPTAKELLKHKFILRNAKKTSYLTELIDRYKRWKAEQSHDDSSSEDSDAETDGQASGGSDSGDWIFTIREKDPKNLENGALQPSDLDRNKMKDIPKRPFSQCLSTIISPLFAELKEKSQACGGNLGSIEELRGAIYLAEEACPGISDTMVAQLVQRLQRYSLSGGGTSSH", "format": "biochemical", "conditions": "10 μM ATP"}, "CLK2": {"target": "T15, CLK2 (Homo sapiens, UniProt P49760)", "T15 construct": "purchased Reaction Biology Corp", "format": "biochemical", "conditions": "10 μM ATP"}}, "note": "Where two headings read alike, the source gives them in different places.", "data": [{"smiles": "Cn1cncc1C1=CN(c2ncnc3nc[nH]c23)CCS1", "note": "[Compound 1, Aplithianine A]", "values": [{"measurement": "inhibition at 0.05 µM", "setting": "WNK1; 50 nM", "value": 14.1, "unit": "%"}, {"measurement": "inhibition at 2 µM", "setting": "WNK1; 2 μM", "value": 10.7, "unit": "%"}, {"measurement": "inhibition at 0.05 µM", "setting": "BMX; 50 nM", "value": 13.9, "unit": "%"}, {"measurement": "inhibition at 2 µM", "setting": "BMX; 2 μM", "value": 40, "unit": "%"}, {"measurement": "IC50", "setting": "FLT1/VEGFR1", "value": "18 to 65", "unit": "µM"}, {"measurement": "IC50", "setting": "FLT1/VEGFR1; read-out: FLT1/VEGFR1 IC50, 10 μM ATP", "value": 18.8, "unit": "µM"}, {"measurement": "inhibition at 0.05 µM", "setting": "RSK2; 50 nM", "value": 12.3, "unit": "%"}, {"measurement": "inhibition at 2 µM", "setting": "RSK2; 2 μM", "value": 66, "unit": "%"}, {"measurement": "inhibition at 0.05 µM", "setting": "ROCK2; 50 nM", "value": 19.6, "unit": "%"}, {"measurement": "inhibition at 2 µM", "setting": "ROCK2; 2 μM", "value": 93.3, "unit": "%"}, {"measurement": "inhibition at 0.05 µM", "setting": "EPHB3; 50 nM", "value": 12.8, "unit": "%"}, {"measurement": "inhibition at 2 µM", "setting": "EPHB3; 2 μM", "value": 20.2, "unit": "%"}, {"measurement": "inhibition at 0.05 µM", "setting": "CDK9", "value": 12.4, "unit": "%"}, {"measurement": "IC50", "setting": "ERBB2/HER2", "value": "18 to 65", "unit": "µM"}, {"measurement": "IC50", "setting": "ERBB2/HER2; read-out: ERBB2/HER2 IC50, 10 μM ATP", "value": 26.4, "unit": "µM"}, {"measurement": "inhibition at 0.05 µM", "setting": "PKCv/PKD3; 50 nM, 10 μM ATP", "value": 25, "unit": "%"}, {"measurement": "inhibition at 2 µM", "setting": "PKCv/PKD3; 2 μM, 10 μM ATP", "value": 88.9, "unit": "%"}, {"measurement": "IC50", "setting": "PKCv/PKD3; 10 μM ATP, read-out: PKCv/PKD3 IC50", "value": 130, "unit": "nM"}, {"measurement": "PKCnu Differential (as compared to PKG1a)", "setting": "PKCv/PKD3; IC50 (kinase)/IC50 (PKG1a)", "value": 11.92}, {"measurement": "IC50", "setting": "PKCv/PKD3; Table 4 dose-response, read-out: PKCnu IC50 Values", "value": 136, "unit": "nM"}, {"measurement": "inhibition at 2 µM", "setting": "CLK1", "value": 97.3, "unit": "%"}, {"measurement": "inhibition at 0.05 µM", "setting": "DYRK1A; 50 nM, 10 μM ATP", "value": 23.1, "unit": "%"}, {"measurement": "inhibition at 2 µM", "setting": "DYRK1A; 2 μM, 10 μM ATP", "value": 95.4, "unit": "%"}, {"measurement": "IC50", "setting": "DYRK1A; 10 μM ATP, read-out: DYRK1A IC50", "value": 119, "unit": "nM"}, {"measurement": "DYRK1A Differential (as compared to PKG1a)", "setting": "DYRK1A; IC50 (kinase)/IC50 (PKG1a)", "value": 10.01}, {"measurement": "IC50", "setting": "DYRK1A; Table 4 dose-response, read-out: DYRK1A IC50 Values", "value": 114, "unit": "nM"}, {"measurement": "IC50", "setting": "ERK1", "value": "0.8 to 6.6", "unit": "µM"}, {"measurement": "IC50", "setting": "ERK1; read-out: ERK1 IC50, 10 μM ATP", "value": 5.71, "unit": "µM"}, {"measurement": "IC50", "setting": "AKT1", "value": "43 to 189", "unit": "nM"}, {"measurement": "inhibition at 0.05 µM", "setting": "AKT1; read-out: AKT1 % inhibition", "value": 25.1, "unit": "%"}, {"measurement": "inhibition at 2 µM", "setting": "AKT1; read-out: AKT1 % inhibition", "value": 83.7, "unit": "%"}, {"measurement": "IC50", "setting": "AKT1; read-out: AKT1 IC50, 10 μM ATP", "value": 179, "unit": "nM"}, {"measurement": "inhibition at 0.05 µM", "setting": "CDK2; 50 nM", "value": 12.6, "unit": "%"}, {"measurement": "inhibition at 2 µM", "setting": "CDK2; 2 μM", "value": 49.1, "unit": "%"}, {"measurement": "inhibition at 0.05 µM", "setting": "PKCγ; 50 nM, 10 μM ATP", "value": 30.5, "unit": "%"}, {"measurement": "inhibition at 2 µM", "setting": "PKCγ; 2 μM, 10 μM ATP", "value": 92.8, "unit": "%"}, {"measurement": "IC50", "setting": "PKCγ; 10 μM ATP, read-out: PKCγ IC50", "value": 234, "unit": "nM"}, {"measurement": "PKCg Differential (as compared to PKG1a)", "setting": "PKCγ; IC50 (kinase)/IC50 (PKG1a)", "value": 13.99}, {"measurement": "IC50", "setting": "PKCγ; Table 4 dose-response, read-out: PKCg IC50 Values", "value": 159, "unit": "nM"}, {"measurement": "inhibition at 0.05 µM", "setting": "RAF1; 50 nM", "value": 21.6, "unit": "%"}, {"measurement": "inhibition at 2 µM", "setting": "RAF1; 2 μM", "value": 47, "unit": "%"}, {"measurement": "inhibition at 0.05 µM", "setting": "BMPR2; 50 nM", "value": 21.3, "unit": "%"}, {"measurement": "inhibition at 2 µM", "setting": "BMPR2; 2 μM", "value": 74, "unit": "%"}, {"measurement": "inhibition at 0.05 µM", "setting": "MST3; 50 nM", "value": 13.2, "unit": "%"}, {"measurement": "inhibition at 2 µM", "setting": "MST3; 2 μM", "value": -15.6, "unit": "%"}, {"measurement": "inhibition at 2 µM", "setting": "CLK2", "value": 97.8, "unit": "%"}]}]}
